Measured values published in ChEMBL document CHEMBL5291721, “A preclinical secondary pharmacology resource illuminates target-adverse drug reaction associations of marketed drugs” (Nat Commun, 2023).

What was measured:
[1] = target: T1, Muscarinic acetylcholine receptor M2 (Homo sapiens, UniProt P08172); format: functional, cell-based
T1 sequence (P08172 whole entry): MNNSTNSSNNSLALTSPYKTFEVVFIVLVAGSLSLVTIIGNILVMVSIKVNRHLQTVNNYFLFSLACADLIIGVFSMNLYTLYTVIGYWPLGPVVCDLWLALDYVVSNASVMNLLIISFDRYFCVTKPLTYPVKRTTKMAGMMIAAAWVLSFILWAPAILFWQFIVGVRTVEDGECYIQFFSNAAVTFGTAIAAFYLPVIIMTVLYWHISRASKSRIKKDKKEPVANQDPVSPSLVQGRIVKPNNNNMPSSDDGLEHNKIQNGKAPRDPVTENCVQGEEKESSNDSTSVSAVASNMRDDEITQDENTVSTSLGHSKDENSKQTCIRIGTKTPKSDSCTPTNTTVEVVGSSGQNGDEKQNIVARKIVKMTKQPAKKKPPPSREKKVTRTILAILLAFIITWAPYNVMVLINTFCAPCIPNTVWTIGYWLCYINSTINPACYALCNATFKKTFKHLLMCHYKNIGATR

[2] = target: Muscarinic acetylcholine receptor M3 (Homo sapiens, UniProt P20309)
[3] = target: Glutamate receptor ionotropic, NMDA 1 (Rattus norvegicus, UniProt P35439)
[4] = target: Histamine H1 receptor (Homo sapiens, UniProt P35367)
[5] = target: D(3) dopamine receptor (Homo sapiens, UniProt P35462)
[6] = target: 3',5'-cyclic-AMP phosphodiesterase 4A (Homo sapiens, UniProt P27815); format: functional
[7] = target: T2, Progesterone receptor (Homo sapiens, UniProt P06401)
T2 sequence (P06401 whole entry): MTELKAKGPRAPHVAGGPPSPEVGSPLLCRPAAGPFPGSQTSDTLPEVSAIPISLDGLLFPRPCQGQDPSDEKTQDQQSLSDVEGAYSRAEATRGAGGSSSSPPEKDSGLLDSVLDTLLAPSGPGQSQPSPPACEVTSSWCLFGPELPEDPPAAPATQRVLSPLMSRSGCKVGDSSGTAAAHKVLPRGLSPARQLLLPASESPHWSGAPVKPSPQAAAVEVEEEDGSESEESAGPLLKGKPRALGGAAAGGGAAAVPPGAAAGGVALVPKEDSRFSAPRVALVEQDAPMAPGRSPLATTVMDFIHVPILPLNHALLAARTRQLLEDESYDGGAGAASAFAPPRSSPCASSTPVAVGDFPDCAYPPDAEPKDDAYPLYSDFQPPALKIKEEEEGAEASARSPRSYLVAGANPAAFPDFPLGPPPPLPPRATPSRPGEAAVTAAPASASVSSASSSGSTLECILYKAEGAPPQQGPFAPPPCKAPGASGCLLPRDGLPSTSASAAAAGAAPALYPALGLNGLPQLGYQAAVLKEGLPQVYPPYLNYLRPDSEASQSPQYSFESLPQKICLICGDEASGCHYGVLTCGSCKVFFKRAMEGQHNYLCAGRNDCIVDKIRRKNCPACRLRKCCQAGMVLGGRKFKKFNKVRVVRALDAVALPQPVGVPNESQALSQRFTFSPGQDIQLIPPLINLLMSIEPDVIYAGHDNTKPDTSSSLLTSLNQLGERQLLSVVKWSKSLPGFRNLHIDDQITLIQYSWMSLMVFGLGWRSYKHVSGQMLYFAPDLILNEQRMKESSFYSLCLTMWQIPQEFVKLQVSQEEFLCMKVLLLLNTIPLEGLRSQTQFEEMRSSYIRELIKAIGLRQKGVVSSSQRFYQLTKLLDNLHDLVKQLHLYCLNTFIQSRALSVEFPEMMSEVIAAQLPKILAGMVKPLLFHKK

[8] = target: T3, Thromboxane A2 receptor (Homo sapiens, UniProt P21731); format: functional, cell-based
T3 sequence (P21731 whole entry): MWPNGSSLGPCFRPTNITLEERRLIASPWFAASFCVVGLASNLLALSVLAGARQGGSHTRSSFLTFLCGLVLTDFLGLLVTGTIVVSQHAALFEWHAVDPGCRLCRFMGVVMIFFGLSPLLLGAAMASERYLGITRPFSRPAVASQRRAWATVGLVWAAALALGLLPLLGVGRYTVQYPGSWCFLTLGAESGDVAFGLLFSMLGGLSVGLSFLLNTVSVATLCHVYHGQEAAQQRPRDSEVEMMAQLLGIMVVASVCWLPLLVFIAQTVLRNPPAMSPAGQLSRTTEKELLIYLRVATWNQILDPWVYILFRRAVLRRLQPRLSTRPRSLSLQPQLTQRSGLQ
Also: assay procedure not described here.

Sequence of Histamine H1 receptor (P35367 whole entry): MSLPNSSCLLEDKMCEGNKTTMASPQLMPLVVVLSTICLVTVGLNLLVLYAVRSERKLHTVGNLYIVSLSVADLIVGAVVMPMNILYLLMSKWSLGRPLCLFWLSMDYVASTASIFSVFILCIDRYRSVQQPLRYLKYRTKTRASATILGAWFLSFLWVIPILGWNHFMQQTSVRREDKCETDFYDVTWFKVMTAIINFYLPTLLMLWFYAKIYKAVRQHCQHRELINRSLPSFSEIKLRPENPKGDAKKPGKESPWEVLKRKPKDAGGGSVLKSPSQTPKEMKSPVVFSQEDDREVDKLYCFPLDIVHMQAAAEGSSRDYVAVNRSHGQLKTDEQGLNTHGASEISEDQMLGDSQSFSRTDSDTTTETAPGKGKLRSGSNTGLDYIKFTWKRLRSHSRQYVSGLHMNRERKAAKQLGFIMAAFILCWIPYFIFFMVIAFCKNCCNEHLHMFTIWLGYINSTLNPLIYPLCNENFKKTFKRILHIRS
Sequence of Muscarinic acetylcholine receptor M3 (P20309 whole entry): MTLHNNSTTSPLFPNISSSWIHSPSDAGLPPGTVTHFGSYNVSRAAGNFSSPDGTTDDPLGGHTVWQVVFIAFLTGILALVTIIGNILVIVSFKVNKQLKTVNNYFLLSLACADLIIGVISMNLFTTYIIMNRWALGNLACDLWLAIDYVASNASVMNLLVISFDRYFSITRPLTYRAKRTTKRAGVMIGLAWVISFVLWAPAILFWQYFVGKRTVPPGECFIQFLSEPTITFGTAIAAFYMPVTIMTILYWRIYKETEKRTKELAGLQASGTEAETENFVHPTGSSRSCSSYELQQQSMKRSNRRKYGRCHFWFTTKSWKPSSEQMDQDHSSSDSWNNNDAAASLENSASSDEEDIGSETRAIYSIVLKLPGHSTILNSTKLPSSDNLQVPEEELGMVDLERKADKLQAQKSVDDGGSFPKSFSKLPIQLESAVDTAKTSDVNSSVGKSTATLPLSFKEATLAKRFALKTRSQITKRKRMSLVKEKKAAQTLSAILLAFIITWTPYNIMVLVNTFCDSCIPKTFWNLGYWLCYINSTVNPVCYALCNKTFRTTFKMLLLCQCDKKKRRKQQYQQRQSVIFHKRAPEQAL
Sequence of D(3) dopamine receptor (P35462 whole entry): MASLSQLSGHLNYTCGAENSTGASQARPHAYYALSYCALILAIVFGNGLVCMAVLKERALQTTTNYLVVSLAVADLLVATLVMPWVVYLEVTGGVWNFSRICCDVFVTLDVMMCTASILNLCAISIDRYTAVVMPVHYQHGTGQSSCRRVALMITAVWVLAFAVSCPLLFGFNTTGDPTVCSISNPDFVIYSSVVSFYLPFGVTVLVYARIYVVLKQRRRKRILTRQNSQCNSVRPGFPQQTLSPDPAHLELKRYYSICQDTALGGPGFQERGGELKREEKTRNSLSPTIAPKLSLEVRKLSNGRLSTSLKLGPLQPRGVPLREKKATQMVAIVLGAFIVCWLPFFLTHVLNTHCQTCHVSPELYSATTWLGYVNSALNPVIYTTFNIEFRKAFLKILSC
Sequence of 3',5'-cyclic-AMP phosphodiesterase 4A (P27815 whole entry): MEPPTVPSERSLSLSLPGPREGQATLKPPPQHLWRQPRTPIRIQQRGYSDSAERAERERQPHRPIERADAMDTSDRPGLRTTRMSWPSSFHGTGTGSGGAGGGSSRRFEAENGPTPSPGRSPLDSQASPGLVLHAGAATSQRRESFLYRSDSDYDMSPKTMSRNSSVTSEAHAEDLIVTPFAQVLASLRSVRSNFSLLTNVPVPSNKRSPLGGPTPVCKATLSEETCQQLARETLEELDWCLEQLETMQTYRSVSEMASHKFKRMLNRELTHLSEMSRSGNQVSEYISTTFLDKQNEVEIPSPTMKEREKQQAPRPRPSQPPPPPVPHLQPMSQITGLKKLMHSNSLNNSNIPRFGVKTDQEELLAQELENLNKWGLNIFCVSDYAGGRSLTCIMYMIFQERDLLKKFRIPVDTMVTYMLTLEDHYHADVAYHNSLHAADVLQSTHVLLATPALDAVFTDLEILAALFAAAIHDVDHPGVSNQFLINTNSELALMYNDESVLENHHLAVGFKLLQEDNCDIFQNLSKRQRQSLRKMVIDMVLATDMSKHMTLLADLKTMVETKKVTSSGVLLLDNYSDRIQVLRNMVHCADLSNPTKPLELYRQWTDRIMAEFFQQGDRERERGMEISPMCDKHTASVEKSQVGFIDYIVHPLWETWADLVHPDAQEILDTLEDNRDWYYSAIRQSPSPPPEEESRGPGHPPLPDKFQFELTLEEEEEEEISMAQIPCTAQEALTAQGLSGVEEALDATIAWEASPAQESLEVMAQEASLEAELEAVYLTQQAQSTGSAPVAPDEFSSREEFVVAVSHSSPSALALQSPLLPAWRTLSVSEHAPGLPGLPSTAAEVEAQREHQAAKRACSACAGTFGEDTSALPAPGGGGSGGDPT

Structure (SMILES) | AC50 [1] [µM] | AC50 [2] [µM] | AC50 [3] [µM] | AC50 [4] [µM] | AC50 [5] [µM] | AC50 [6] [µM] | AC50 [7] [µM] | AC50 [8] [µM]
CO/N=C(\C(=O)N[C@@H]1C(=O)N2C(C(=O)[O-])=C(C[N+]3(C)CCCC3)CS[C@H]12)c1csc(N)n1 | > 300 | > 300 | > 30 | > 300 | – | – | – | –
COC(=O)N[C@H](C(=O)N1CCC[C@H]1c1nc(-c2ccc(-c3ccc(-c4c[nH]c([C@@H]5CCCN5C(=O)[C@@H](NC(=O)OC)C(C)C)n4)cc3)cc2)c[nH]1)C(C)C | > 30 | > 30 | > 30 | > 30 | – | – | – | –
CCOC(=O)[C@H](CCc1ccccc1)N[C@@H](C)C(=O)N1CCC[C@H]1C(=O)O | > 10 | – | > 10 | – | – | – | – | –
C[C@H]1O[C@H](O[C@H]2[C@H](O)[C@@H](O)[C@@H](O[C@H]3[C@H](O)[C@@H](O)C(O)O[C@@H]3CO)O[C@@H]2CO)[C@H](O)[C@@H](O)[C@@H]1N[C@H]1C=C(CO)[C@@H](O)[C@H](O)[C@H]1O (some centres undefined) [ACARBOSE] | > 10 | – | > 10 | – | > 30 | 5.08 | > 30 | > 30
CC(=O)c1ccc2c(c1)N(CCCN1CCN(CCO)CC1)c1ccccc1S2 [ACETOPHENAZINE] | > 10 | > 30 | – | 0.049 | – | – | – | –
CC(N)Cc1ccccc1 (centres undefined) [AMPHETAMINE] | > 30 | > 30 | > 10 | – | – | – | – | –
COC(=O)N[C@H](C(=O)N[C@@H](Cc1ccccc1)[C@@H](O)CN(Cc1ccc(-c2ccccn2)cc1)NC(=O)[C@@H](NC(=O)OC)C(C)(C)C)C(C)(C)C [ATAZANAVIR] | > 10 | > 30 | > 10 | > 10 | – | – | – | –
CN1CCCC(n2nc(Cc3ccc(Cl)cc3)c3ccccc3c2=O)CC1 (centres undefined) [AZELASTINE] | – | > 30 | – | – | – | – | – | –
CC(C)NCC(O)COc1ccc(COCCOC(C)C)cc1 (centres undefined) [BISOPROLOL] | > 10 | > 30 | > 10 | > 10 | – | – | – | –
N[C@@H](C(=O)N[C@@H]1C(=O)N2C(C(=O)O)=C(Cl)CS[C@H]12)c1ccccc1 [CEFACLOR ANHYDROUS] | > 30 | > 30 | > 30 | > 30 | – | – | – | –
Cc1cc(O)cc(C)c1Cl [CHLOROXYLENOL] | – | – | – | – | > 30 | > 30 | > 30 | > 30
CCC[C@@H]1C[C@@H](C(=O)N[C@@H]([C@H]2O[C@H](SC)[C@H](O)[C@@H](O)[C@H]2O)[C@H](C)Cl)N(C)C1 [CLINDAMYCIN] | > 10 | – | > 10 | – | – | – | – | –
CN(C)CCCN1c2ccccc2CCc2ccc(Cl)cc21 [CLOMIPRAMINE] | > 10 | – | – | – | 0.0393 | – | – | –
O=C(O)c1cc(-c2ccc(F)cc2F)ccc1O [DIFLUNISAL] | > 10 | – | > 10 | – | – | – | – | –
O=C1c2ccccc2C(=O)C1C(=O)C(c1ccccc1)c1ccccc1 [DIPHENADIONE] | – | – | – | – | > 30 | > 30 | > 30 | 7.02
COC(=O)[C@@H]1CC2=CC(=O)CC[C@]2(C)[C@@]23O[C@@H]2C[C@@]2(C)[C@@H](CC[C@@]24CCC(=O)O4)[C@H]13 [EPLERENONE] | > 30 | > 30 | > 10 | > 30 | – | – | – | –
C#C[C@]1(O)CC[C@H]2[C@@H]3CCc4cc(O)ccc4[C@H]3CC[C@@]21C [ETHINYL ESTRADIOL] | > 10 | – | > 10 | – | > 30 | 20.1 | 0.02 | > 30
NC(N)=Nc1nc(CSCCC(N)=NS(N)(=O)=O)cs1 [FAMOTIDINE] | > 10 | – | > 10 | – | – | – | – | –
C[C@@H]1O[C@@H]1P(=O)(O)O [FOSFOMYCIN] | > 10 | > 30 | > 10 | > 10 | – | – | – | –
COc1ccc2c(c1)C(=O)N(CCc1ccc(S(=O)(=O)NC(=O)NC3CCCCC3)cc1)C(=O)C2(C)C [GLIQUIDONE] | > 30 | > 30 | > 30 | > 30 | – | – | – | –
NS(=O)(=O)c1cc2c(cc1Cl)NCNS2(=O)=O [HYDROCHLOROTHIAZIDE] | > 10 | – | > 10 | – | – | – | – | –

Structure (SMILES) | AC50 [1] [µM] | AC50 [2] [µM] | AC50 [3] [µM] | AC50 [4] [µM] | AC50 [5] [µM] | AC50 [6] [µM] | AC50 [7] [µM] | AC50 [8] [µM]
CC(C)Cc1ccc(CC(=O)O)cc1 [IBUFENAC] | > 30 | > 30 | – | > 30 | – | – | – | –
CC(C)NNC(=O)c1ccncc1 [IPRONIAZID] | > 30 | – | – | – | – | – | – | –
NC[C@H]1O[C@H](O[C@H]2[C@H](O)[C@@H](O[C@H]3O[C@H](CO)[C@@H](O)[C@H](N)[C@H]3O)[C@H](N)C[C@@H]2N)[C@H](O)[C@@H](O)[C@@H]1O [KANAMYCIN] | > 10 | – | > 10 | – | – | – | – | –
CN1C(=O)CC(C)(c2ccccc2)C1=O (centres undefined) [METHSUXIMIDE] | > 10 | > 30 | > 10 | > 10 | – | – | – | –
C[C@H]1C[C@@H]2[C@H]([C@@H](O)C[C@@]3(C)[C@H]2CC[C@]3(O)C(=O)CO)[C@@]2(C)C=CC(=O)C=C12 [METHYLPREDNISOLONE] | > 10 | – | > 10 | – | – | – | – | –
CCN(CC)CCNC(=O)c1cc(Cl)c(N)cc1OC [METOCLOPRAMIDE] | – | – | > 10 | – | – | – | – | –
CC(C)(C(=O)c1cccnc1)c1cccnc1 [METYRAPONE] | > 10 | – | > 10 | – | – | – | – | –
Cc1cccc(C)c1OCC(C)N (centres undefined) [MEXILETINE] | > 30 | – | – | – | – | – | – | –
NC(=O)c1ncn([C@@H]2O[C@H](CO)[C@@H](O)[C@H]2O)c1O [MIZORIBINE] | – | > 30 | > 30 | > 30 | – | – | – | –
O=C1CC[C@@]2(O)[C@H]3Cc4ccc(O)c5c4[C@@]2(CCN3CC2CC2)[C@H]1O5 [NALTREXONE] | – | – | – | – | > 30 | > 30 | > 30 | > 30
CCc1nn(CCCN2CCN(c3cccc(Cl)c3)CC2)c(=O)n1CCOc1ccccc1 [NEFAZODONE] | – | > 10 | > 10 | 0.41 | – | – | – | –
COC(=O)C1=C(C)NC(C)=C(C(=O)OCC(C)C)C1c1ccccc1[N+](=O)[O-] (centres undefined) [NISOLDIPINE] | > 10 | – | > 10 | – | – | – | – | –
NC1=NC(=O)C(c2ccccc2)O1 (centres undefined) [PEMOLINE] | > 10 | – | > 10 | – | – | – | – | –
CC(N/C(=N\C#N)Nc1ccncc1)C(C)(C)C (centres undefined) [PINACIDIL ANHYDROUS] | – | – | – | – | > 30 | > 30 | > 30 | > 30
CC[C@H](C)C(=O)O[C@H]1C[C@H](O)C=C2C=C[C@H](C)[C@H](CC[C@@H](O)C[C@@H](O)CC(=O)O)[C@H]21 [PRAVASTATIN] | > 30 | – | > 10 | – | – | – | – | –
CNC(=O)c1cc(Oc2ccc(NC(=O)Nc3ccc(Cl)c(C(F)(F)F)c3)cc2)ccn1 [SORAFENIB] | > 30 | > 30 | > 30 | > 30 | – | – | – | –
CC(C(=O)O)c1ccc(C(=O)c2cccs2)cc1 (centres undefined) [SUPROFEN] | > 10 | > 30 | > 10 | > 10 | – | – | – | –
Cc1ccc(C(=O)c2cc(O)c(O)c([N+](=O)[O-])c2)cc1 [TOLCAPONE] | > 10 | > 30 | > 10 | > 10 | – | – | – | –
NC[C@H]1CC[C@H](C(=O)O)CC1 [TRANEXAMIC ACID] | > 10 | – | > 10 | – | – | – | – | –
OCc1cc([C@@H](O)CNCCCCCCOCCOCc2c(Cl)cccc2Cl)ccc1O [VILANTEROL] | > 30 | > 30 | – | > 30 | – | – | – | –
